Values after ≈ are worked out from the molar mass of the structure shown. Structures can show the parent of a compound that is named as a salt.
Columns and labels:
[1] = test system: Klebsiella pneumoniae KPC2; assay: MIC alone against β-lactamase producing strain; assay type: cell-based; settings: Klebsiella pneumoniae, KPC2; substance alone
Method: (§1) Minimum Inhibitory Concentrations (MICs) were determined by the broth microdilution method in accordance with the Clinical and Laboratory Standards Institute (CLSI) guidelines. Clinical Laboratory Standards Institute: Methods for Dilution Antimicrobial Susceptability Tests for Bacteria That Grow Aerobically (8th Ed. (2009)) M07-A8. In brief, organism suspensions were adjusted to a 0.5 McFarland standard and further diluted to yield a final inoculum between 3×10^5 and 7×10^5 colony-forming units (CFU)/mL. Bacterial inocula were made in sterile, cation adjusted Mueller-Hinton Broth (Beckton Dickinson) for either Escherichia coli, Klebsiella pneumoniae, or Pseudomonas aeruginosa. Haemophilus influenzae bacterial inocula were made in sterile, cation adjusted Mueller-Hinton Broth (Beckton Dickinson) containing 0.5% yeast extract (Beckton Dickinson) plus 15 μg/ml Bovine Hematin (Sigma) and 15 μg/ml β-nicotinamide adenine dinucleotide (Sigma). Bacterial inocula were made in sterile, cation adjusted Mueller-Hinton Broth (Beckton Dickinson) for Staphylococcus aureus or sterile, cation adjusted Mueller-Hinton Broth containing 2.5% lysed horse blood (Hema Resource & Supply Inc.) for Streptococcus pneumoniae and Streptococcus pyogenes. An inoculum volume of 100 uL was added to wells (using a Tecan EVO robot) containing 2 uL of DMSO containing 2-fold serial dilutions of drug. […] All inoculated microdilution trays were incubated in ambient air at 35° C. for 18-24 hours. Following incubation, the lowest concentration of the drug that prevented visible growth as read at OD600 nm was recorded as the MIC. Performance of the assay was monitored by the use of laboratory quality-control strains and commercially available control compounds with defined MIC spectrums, in accordance with CLSI guidelines.

[2] = test system: Pseudomonas aeruginosa PER-1, OXA-10; assay: MIC alone against β-lactamase producing strain; assay type: cell-based; settings: Pseudomonas aeruginosa; substance alone
Method: as §1

[3] = test system: Pseudomonas aeruginosa AmpC (first AmpC column); assay: MIC alone against β-lactamase producing strain; assay type: cell-based; settings: substance alone, column 2
Method: as §1

[4] = test system: Pseudomonas aeruginosa AmpC (second AmpC column); assay: MIC alone against β-lactamase producing strain; assay type: cell-based; settings: substance alone, column 4
Method: as §1

S. aureus (MRSA) = assay: MIC, broth microdilution (CLSI); assay type: cell-based, Staphylococcus aureus; settings: Staphylococcus aureus, MRSA; compound alone
Method: as §1

S. aureus (MSSA) = assay: MIC, broth microdilution (CLSI); assay type: cell-based, Staphylococcus aureus; settings: Staphylococcus aureus, MSSA; compound alone
Method: as §1

Klebsiella pneumoniae = assay: MIC, broth microdilution (CLSI); assay type: cell-based; settings: Klebsiella pneumoniae; compound alone; read-out: MIC K. pneumon.
Method: as §1

Streptococcus pneumoniae = assay: MIC, broth microdilution (CLSI); assay type: cell-based; settings: Streptococcus pneumoniae; compound alone; read-out: MIC S. pneumon.
Method: as §1

Streptococcus pyogenes = assay: MIC, broth microdilution (CLSI); assay type: cell-based; settings: Streptococcus pyogenes; compound alone; read-out: MIC S. pyogenes
Method: as §1

Haemophilus influenzae = assay: MIC, broth microdilution (CLSI); assay type: cell-based; settings: Haemophilus influenzae; compound alone; read-out: MIC H. influenzae
Method: as §1

Escherichia coli = assay: MIC, broth microdilution (CLSI); assay type: cell-based; settings: Escherichia coli; compound alone
Method: as §1

Pseudomonas aeruginosa = assay: MIC, broth microdilution (CLSI); assay type: cell-based; settings: Pseudomonas aeruginosa; compound alone; read-out: MIC P. aeruginosa
Method: as §1

Structure (SMILES) | MIC [1] [µg/mL] | MIC [2] [µg/mL] | MIC [3] [µg/mL] | MIC [4] [µg/mL] | MIC (S. aureus (MRSA)) [µg/mL] | MIC (S. aureus (MSSA)) [µg/mL] | MIC (Klebsiella pneumoniae) [µg/mL] | MIC (Streptococcus pneumoniae) [µg/mL] | MIC (Streptococcus pyogenes) [µg/mL] | MIC (Haemophilus influenzae) [µg/mL] | MIC (Escherichia coli) [µg/mL] | MIC (Pseudomonas aeruginosa) [µg/mL]
CC(C)(O/N=C(\C(=O)N[C@@H]1C(=O)N2C(C(=O)[O-])=C(C[n+]3ccccc3)CS[C@H]12)c1csc(N)n1)C(=O)O [Ceftazidime, ceftazidime, reference compound] | 256 (≈ 468 µM) | 256 (≈ 468 µM) | 128 (≈ 234 µM) | 32 (≈ 58.5 µM) | – | – | – | – | – | – | – | –
CC1=C[C@@H](C(=O)NC2CCNCC2)N2C[C@@H]1N(OS(=O)(=O)O)C2=O [Example 3, (2S,5R)-4-methyl-7-oxo-2-(piperidinium-4-ylcarbamoyl)-1,6-diazabicyclo[3.2.1]oct-3-en-6-yl sulfate] | – | – | – | – | > 200 | > 200 | > 200 | 50 | 50 | 3.13 | > 200 | > 200
CC(C)C1=C[C@@H](C(N)=O)N2C[C@@H]1N(OS(=O)(=O)O)C2=O.[Na] [Example 4, (2S,5R)-2-carbamoyl-4-isopropyl-7-oxo-1,6-diazabicyclo[3.2.1]oct-3-en-6-yl hydrogen sulfate sodium salt] | > 64 | > 64 | > 64 | > 64 | > 200 | – | > 200 | 200 | 50 | > 200 | > 200 | > 200
CC(C)C1=C[C@@H](C#N)N2C[C@@H]1N(OS(=O)(=O)O)C2=O.[Na] [Example 5, (2S,5R)-2-cyano-4-isopropyl-7-oxo-1,6-diazabicyclo[3.2.1]oct-3-en-6-yl hydrogen sulfate sodium salt] | – | – | – | – | > 200 | > 200 | > 200 | 100 | 50 | 100 | > 200 | > 200
CC(C)(C)OC(=O)N1CCC(NC(=O)[C@@H]2C=C[C@@H]3CN2C(=O)N3OS(=O)(=O)O)CC1 [Example 14, (2S,5R)-2-(1-(tert-butoxycarbonyl)piperidin-4-ylcarbamoyl)-7-oxo-1,6-diazabicyclo[3.2.1]oct-3-en-6-yl sulfate sodium salt] | – | – | – | – | > 200 | 100 | > 200 | 100 | 100 | 12.5 | > 200 | > 200

Now from value to molecule:

MIC [1] [µg/mL] | MIC [2] [µg/mL] | MIC [3] [µg/mL] | MIC [4] [µg/mL] | MIC (S. aureus (MRSA)) [µg/mL] | MIC (S. aureus (MSSA)) [µg/mL] | MIC (Klebsiella pneumoniae) [µg/mL] | MIC (Streptococcus pneumoniae) [µg/mL] | MIC (Streptococcus pyogenes) [µg/mL] | MIC (Haemophilus influenzae) [µg/mL] | MIC (Escherichia coli) [µg/mL] | MIC (Pseudomonas aeruginosa) [µg/mL] | Structure (SMILES)
– | – | – | – | > 200 | > 200 | > 200 | > 200 | > 200 | > 200 | > 200 | > 200 | C=C(C)C1=C[C@@H](COC)N2C[C@@H]1N(OS(=O)(=O)O)C2=O.[Na] [Example 7, (2S,5R)-2-(methoxymethyl)-7-oxo-4-(prop-1-en-2-yl)-1,6-diazabicyclo[3.2.1]oct-3-en-6-yl hydrogen sulfate sodium salt]
> 16 | > 16 | > 16 | > 16 | – | – | – | – | – | – | – | – | CC1=C[C@@H](C(=O)NCc2cc(=O)c(O)c[nH]2)N2C[C@@H]1N(OS(=O)(=O)O)C2=O [Example 8, (2S,5R)-2-((5-hydroxy-4-oxo-1,4-dihydropyridin-2-yl)methylcarbamoyl)-4-methyl-7-oxo-1,6-diazabicyclo[3.2.1]oct-3-en-6-yl hydrogen sulfate sodium salt]
> 16 | > 16 | > 16 | > 16 | – | – | – | – | – | – | – | – | COCC1=C[C@@H](C(N)=O)N2C[C@@H]1N(OS(=O)(=O)[O-])C2=O.[Na+] [Example 9, (2S,5R)-2-carbamoyl-4-(methoxymethyl)-7-oxo-1,6-diazabicyclo[3.2.1]oct-3-en-6-yl hydrogen sulfate sodium salt]
64 | > 64 | > 64 | > 64 | > 200 | – | 50 | 25 | 25 | 100 | 100 | > 200 | COC[C@@H]1C=C(C(N)=O)[C@@H]2CN1C(=O)N2OS(=O)(=O)O [Example 12, (2S,5R)-4-carbamoyl-2-(methoxymethyl)-7-oxo-1,6-diazabicyclo[3.2.1]oct-3-en-6-yl hydrogen sulfate, monosodium salt]

From patent US9623014B2 (Entasis Therapeutics Limited, priority 2012, dated 2017)
